Assay results from PubChem BioAssay AID464 (The Scripps Research Institute Molecular Screening Center, 2006).
Calls of active or inactive are those of the source.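 The calls were made as follows: active = Compounds that kill half the cells at a concentration of 5 micromolar or below, from the fitted or estimated CC50; inactive = CC50 above 5 micromolar.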

System: Jurkat E6.1 viability, ATP luminescence, 48 h
Experiment: Jurkat E6.1 cell cytotoxicity, CC50 determination, dose response, cytotoxicity control, ATP luminescence, 48 h, 60K MLSMR (AID 464)

Compound | CC50
N#Cc1c(NCc2ccccc2)ccnc1NCc1cccnc1 | 4.17 µM
CC1=C(C(=O)OCc2ccc3c(c2)OCO3)C(c2ccc(Cl)cc2)NC(=O)N1 (configuration not stated) | 12.6 µM (inactive)
O=C(O)C1CC=CCC1C(=O)Nc1ccc(S(=O)(=O)N2CCCc3ccccc32)cc1 (configuration not stated) | > 40 µM (inactive)
COc1ccc(C2NC(=O)NC3=C2CCc2ccccc23)cc1 (configuration not stated) | 4.81 µM
COc1ccccc1C1C=C(c2ccc(C)cc2)Nc2nnnn21 (configuration not stated) | > 40 µM (inactive)
Cc1c(C(=O)N2CCCCC2)oc2ccc(S(=O)(=O)N3CC(C)CC(C)C3)cc12 (configuration not stated) | 15.9 µM (inactive)
O=S1(=O)Nc2c(ccc3cccnc23)-c2ccccc21 | 4.74 µM
CCN1CCN(c2ncc3c(n2)CC(c2cc(OC)c(OC)c(OC)c2)CC3=O)CC1 (configuration not stated) | 2.26 µM
O=C(CC(=O)c1ccccc1O)c1cccc(F)c1 | > 40 µM (inactive)
O=C(NCc1cccc(F)c1)c1noc2c1CCCC2 | 8.73 µM (inactive)
COCCCN1C(=O)c2[nH]nc(-c3ccccc3O)c2C1c1cccc(Cl)c1 (configuration not stated) | 3.39 µM
Cc1ccc(-c2nc(-c3ccccn3)no2)cc1 | 10.3 µM (inactive)
CCOC(=O)C1=C(N)n2c(s/c(=C\c3cccs3)c2=O)=C(C(=O)OCC)C1c1cccs1 (configuration not stated) | 4.39 µM
COc1cc(C(=O)N2CCN(c3cccc(C)c3C)CC2)cc(OC)c1OC | 0.37 µM
COc1ccccc1-c1cc(C(=O)Nc2cccnc2)no1 | 0.146 µM
Cc1cc(C)n(-c2nc3ccccc3c(=O)n2OCC(=O)OCc2ccccc2)n1 | 9.76 µM (inactive)
Cc1nnc(NC(=O)CSc2nccn2-c2cccc(C)c2C)s1 | 2.04 µM
Cc1cc(NC(c2cccnc2)c2ccc3cccnc3c2O)no1 (configuration not stated) | 3.25 µM
Cn1cc(/C(Cc2ccccc2)=N\O)c2ccccc21 | 12.9 µM (inactive)
CCN(CC)S(=O)(=O)c1cccc(C(=O)Nc2nc3cc4c(cc3s2)OCCO4)c1 | 12.8 µM (inactive)
CSC(=Nc1ccccc1)c1c(O)n(C)c(=O)n(C)c1=O | 17.8 µM (inactive)
CCn1c(SCC(=O)c2c[nH]c3ccccc23)nnc1-c1cccs1 | 8.26 µM (inactive)

Compound | CC50
CCOc1ccc2ccccc2c1C(=O)N1CCN(c2ccccc2)CC1 | 3.75 µM
Oc1cccc2ccc(Nc3ccccn3)nc12 | 1.97 µM
COC(=O)/C=C/S(=O)(=O)c1ccc(NC(C)=O)cc1 | 2.31 µM
CC(=O)Oc1ccc(Oc2ccc(-c3noc(C)n3)cc2)cc1 | > 40 µM (inactive)
CCC(C)c1ccc(NC(=O)C2CCCN(c3ncccn3)C2)cc1 (configuration not stated) | 10.4 µM (inactive)
CCOC(=O)c1[nH]c2c(c1C)C(=O)CC(c1ccco1)C2 (configuration not stated) | 0.201 µM
O=C(CSc1nnnn1-c1ccc2c(c1)OCO2)NCc1ccccc1 | > 4.4 µM (inactive)
COc1ccc(C2=Nn3c(nnc3-c3ccc(OC)cc3)SC2)cc1 | 0.325 µM
COc1ccc(CNc2cc(C)nc3ncnn23)c(OC)c1 | 3.25 µM
Oc1c(CN2CCCCC2)cc(Br)c2cccnc12 | 3.79 µM
CCOC(=O)c1[nH]c(C)c(C(=O)c2cc(F)ccc2F)c1C | 0.204 µM
COc1cc2c(O)c3c(c(-c4ccc5c(c4)OCO5)c2cc1OC)C(=O)OC3 | 5.28 µM (inactive)
O=C(NCCN1CCOCC1)NC1(C(F)(F)F)Oc2ccc(Cl)cc2O1 (configuration not stated) | 8.23 µM (inactive)
O=C(Nc1nc2ccccc2[nH]1)c1ccccc1F | 4.79 µM
O=C(Nc1ccc2oc(Cc3ccc(Cl)cc3)nc2c1)c1cccnc1 | 27.8 µM (inactive)
COc1ccccc1S(=O)(=O)Cc1ccc(C(=O)N2CCN(c3cccc(Cl)c3)CC2)o1 | 3.75 µM
CCCCN(C)S(=O)(=O)c1ccc(C(=O)Nc2nnc(-c3cccs3)o2)cc1 | 14.1 µM (inactive)
CSC1=C(C#N)C(c2ccc(Cl)cc2)C2=C(CC(C)(C)CC2=O)N1 (configuration not stated) | 14.7 µM (inactive)
CC1=C(C(=O)OCc2ccc3c(c2)OCO3)C(c2ccccc2)NC(=O)N1 (configuration not stated) | 17.3 µM (inactive)
CCCCn1c(CN2CCN(c3cccc(Cl)c3)CC2)nc2c1c(=O)[nH]c(=O)n2C | 2.84 µM
Cc1c(C(=O)N2CCOCC2)[nH]c2c1C(=O)CC(c1ccccc1Cl)C2 (configuration not stated) | 1.6 µM
O=C(NCc1cccs1)C1CCN(c2ccc(S(=O)(=O)N3CCOCC3)cc2Cl)CC1 | 0.875 µM

Compound | CC50
CN(C)c1ccc(C2C=C(c3ccc(Cl)cc3OC(F)F)Nc3ncnn32)cc1 (configuration not stated) | 3.56 µM
COc1ccccc1N=c1oc2cc(O)ccc2cc1C(N)=O | > 13 µM (inactive)
Cc1ccc(Cl)cc1N1CCN(C(=O)C2CCN(c3nnc(-n4cccc4)s3)CC2)CC1 | > 40 µM (inactive)
COc1ccc(C(=O)c2ccc(N(C)C)cc2)c(OC)c1 | 1.5 µM
CCOC(=O)/C=C/S(=O)(=O)c1ccc(NC(C)=O)cc1 | 3.21 µM
c1ccc(OCCCCn2cnc3ccccc32)cc1 | 20.3 µM (inactive)
CCN(Cc1ccccc1)S(=O)(=O)c1ccc(C(=O)Nc2nnc(C3CC3)o2)cc1 | 32.5 µM (inactive)
CN(C)S(=O)(=O)c1ccc(C(=O)Nc2nc(-c3cccs3)cs2)cc1 | 21.1 µM (inactive)
O=S(=O)(C/C(=C/CO)S(=O)(=O)c1ccccc1)c1ccccc1 | 2.2 µM
CCOC(=O)CSC1=C(C#N)C(c2ccc(C)o2)CC(=O)N1 (configuration not stated) | 0.535 µM
CCCNc1nc2c(c(=O)n(C)c(=O)n2C)n1CCC(C)C | 11.9 µM (inactive)
Cc1ccnc(NC(=O)CCCOc2cc(=O)n(C)c3ccccc23)c1 | 5.58 µM (inactive)
CC(O)CNc1nc2c(c(=O)n(C)c(=O)n2C)n1Cc1cccc(Br)c1 (configuration not stated) | 22.5 µM (inactive)
COc1cc(N=Cc2c(O)[nH]c3ccccc23)cc(OC)c1OC | 1.58 µM
c1ccc(C(Cc2nc(-c3ccncc3)no2)c2ccccc2)cc1 | 8.52 µM (inactive)
CCOC(=O)c1[nH]c(C)c(C(=O)Nc2cc(Cl)ccc2C)c1C | 0.248 µM
CCOC(=O)N1CCN(C(=O)c2ccccc2-c2ccccc2)CC1 | 1.91 µM
O=C1N/C(=C\c2ccccc2)c2ccccc21 | > 4.4 µM (inactive)
CCC(C)Oc1ccccc1C1CC(=O)NC2=C1C(=O)CCC2 (configuration not stated) | 4.73 µM
N#CC1=C(N)Oc2cc(N)ccc2C1C1CC=CCC1 (configuration not stated) | > 4.4 µM (inactive)
CC(C)C1N=C2c3ccccc3N=C(SCC(=O)c3ccc(O)c(O)c3)N2C1=O (configuration not stated) | 10.2 µM (inactive)
CCOc1ccccc1CN(Cc1ccco1)S(=O)(=O)c1ccc(-n2cnnn2)c(OC)c1 | 4.22 µM

Compound | CC50
CCOc1cc(C#N)c(NC(=O)c2cccnc2)cc1OCC | 1.51 µM
COc1ccc(CCNCc2csc3nc4ccccc4n23)cc1OC | 8.02 µM (inactive)
Cc1cc(C(=O)Nc2sc3c(c2C#N)CCC3)no1 | 6.7 µM (inactive)
CCCn1c(NC(=O)C2CCN(S(=O)(=O)c3cccs3)CC2)nc2ccccc21 | > 40 µM (inactive)
COc1ccc(C(NC(C)=O)c2ccc3cccnc3c2O)c(OC)c1 (configuration not stated) | 3.15 µM
COc1ccc(OC)c(NS(=O)(=O)c2ccc(SC)cc2)c1 | 3.29 µM
COc1ccc(N2CCn3c2nc2c3c(=O)n(CCCc3ccccc3)c(=O)n2C)c(OC)c1 | > 40 µM (inactive)
CCN(C(=O)c1ccc(C(C)(C)C)cc1)c1nnc(Cn2nnc3ccccc32)s1 | > 40 µM (inactive)
CC1CCCCN1S(=O)(=O)c1ccc(C(=O)Nc2nnc(-c3cccs3)o2)cc1 (configuration not stated) | 13.7 µM (inactive)
Cc1nnc(Sc2nc(Sc3nnc(C)s3)nc(N3CCN(C)CC3)n2)s1 | 1.34 µM
CCOC(=O)N1CCN(C(=O)C2CCCN(Cc3nc(-c4ccc(Cl)cc4)oc3C)C2)CC1 (configuration not stated) | 4.64 µM
CCOC(=O)C1(N(CC)CC)Sc2cc(C)ccc2NC1=O (configuration not stated) | 8.81 µM (inactive)
COc1ccc(C2NCc3ccc4c(c3-n3cccc32)OCO4)cc1O (configuration not stated) | 0.999 µM
Cc1cc(C(=O)OCC(=O)NCc2ccco2)c(C)n1-c1ccccc1 | 2.68 µM
CCOC(=O)Nc1cc(=O)c2ccccc2o1 | > 4.4 µM (inactive)
CCn1c(=O)c(C(=O)Nc2nc3ccccc3[nH]2)c(O)c2ccccc21 | 14.3 µM (inactive)
CCOC(=O)N1CCC(NC(=O)c2ccc3c(c2)sc2nc(-c4cccc(OC)c4)cn23)CC1 | 35.1 µM (inactive)
Cc1ccc(-n2c(O)c(C=Nc3ccccc3N)c(=O)[nH]c2=O)cc1C | > 13 µM (inactive)
CCCCn1c(CN2CCN(c3ccccc3)CC2)nc2c1c(=O)n(C)c(=O)n2C | 10.4 µM (inactive)
CCOC(=O)C(C)Oc1cccc2c(=O)n(CC(=O)NCc3ccco3)ccc12 (configuration not stated) | 1.1 µM
CCOC(=O)Nc1c(C(=O)OC)[nH]c2cc(OC)ccc12 | 7.94 µM (inactive)
Cn1nnnc1SCC(=O)Nc1ccc(Oc2ccc(Cl)cc2)cc1 | 36.8 µM (inactive)

Compound | CC50
CCCCOc1ccccc1C1CC(=O)NC2=C1C(=O)CCC2 (configuration not stated) | 0.872 µM
COc1ccc(C(=O)N2CCN(c3cccc(Cl)c3)CC2)c(OC)c1 | 8.58 µM (inactive)
Cc1nc2sccn2c1-c1csc(NCc2ccccc2)n1 | 4.81 µM
CS(=O)(=O)N1CCc2cc(S(=O)(=O)Nc3ccc4c(c3)OCCO4)ccc21 | 29.1 µM (inactive)
CCCCNc1cc(C)nc(NCc2ccccc2)n1 | 10.5 µM (inactive)
CCCNS(=O)(=O)c1ccc(OCC(=O)N2CCN(Cc3ccc4c(c3)OCO4)CC2)cc1 | 7.96 µM (inactive)
C=CCN(CC=C)S(=O)(=O)c1ccc2nc(NC(=O)C(C)C)sc2c1 | 3.72 µM
CCCN1CCN(c2ncnc3c2nnn3Cc2ccccc2)CC1 | 9.22 µM (inactive)
Cc1cc(NC(=O)COc2cccc(Oc3ccccc3)c2)no1 | 8.94 µM (inactive)
COc1ccc(C2=NOC(C(=O)NCc3ccc(F)cc3)C2)cc1OC (configuration not stated) | 0.318 µM
Cc1nn(Cc2c(Cl)cccc2Cl)c(C)c1NC(=O)c1cc(C(C)C)on1 | > 40 µM (inactive)
O=C(Nc1cc(N2CCOCC2)ncn1)NC1(C(F)(F)F)Oc2ccc(Cl)cc2O1 (configuration not stated) | 4.81 µM
CC(=O)C(C(C)=O)c1c(Cl)c(O)c(O)c2c(C(=O)c3ccccc3)coc12 | 8.76 µM (inactive)
CC(C)OCCCNc1ncnc2c1[nH]c1ccccc12 | 4.91 µM
COC(=O)C1=C(C)N(c2ccc(Cl)c(Cl)c2)C(=O)C1 | 5.37 µM (inactive)
CCCCOc1ccccc1NC(=O)Cn1c(-c2nonc2N)nc2ccccc21 | 0.733 µM
COc1ccc(OC)c(Nc2cc(-c3ccccc3)nc(N)n2)c1 | 0.699 µM
O=S1(=O)C=C(Sc2nnc(-c3ccccc3)o2)c2ccccc21 | > 13 µM (inactive)
COc1ccc(NC(=O)c2cc(-c3ccccc3OC)on2)cc1 | 1.85 µM
